The text below walks through data of patent US6911470B1, “Polyoxometalate compounds as antiviral agents” (priority 1988, dated 2005).

For data set [1], the system named is human PBM cells. Description: Cytotoxicity assay on uninfected PHA stimulated human PBMC (trypan blue). The class given is cell-based. The protocol: Cells. […] PBS), and pelleted at 300×g for 10 minutes. […] Cytotoxicity assay. The drugs were evaluated for their potential toxic effects on uninfected PHA stimulated human PBMC. Flasks were seeded so that the final cell concentration was 2×10^5 cells/ml. The cells were cultured with and without drug for 6 days, at which time aliquots were counted for cell viability, as assessed by the trypan blue dye-exclusion method using a hemacytometer. The median inhibitory concentration (IC50) was calculated using the median effect method (Chou et al, Elsevier-Biosoft, Elsevier Science Publishers, Cambridge, U.K., 1985; Chou et al, Adv. Enz. Regul. 22, 27-55, 1984). Median-effect method. Dose-effect relationships were analyzed by the median-effect equation (Chou et al, Adv. Enz. Regul. 22, 27-55, 1984). The slope (m) and median effective and inhibitory concentration (EC50 and IC50) values were obtained by using a computer program developed by Chou and Chou (Chou et al, Elsevier-Biosoft, Elsevier Science Publishers, Cambridge, U.K., 1985).

Data set [2] has as its target T1, HIV-1 reverse transcriptase (Human immunodeficiency virus type 1 group M subtype B, UniProt P04585).
T1 construct: HIV-1 RT was isolated from detergent disrupted virions; made in house; host or cells: virions pelleted from culture fluid of HIV-1-infected PHA-stimulated human PBMC; DEAE-cellulose and phosphocellulose chromatography
Kind of data set: Evaluation of compounds on purified retroviral RT (cell-free, virion-derived). The data set is classed as biochemical. The following applies: Table 2; read-out: EC-50 Cell-Free RT (virion-derived). On the procedure: Evaluation of compounds on purified retroviral RT. HIV-1 RT was isolated from detergent disrupted virions obtained from the cell-free supernatant of infected PHA-stimulated PBMC. The enzyme was purified by passing the extract through ion-exchange chromatography columns, as described previously (Eriksson et al, Antimicrob. Agents Chemother. 31, 600-604, 1977. Briefly, 750 ml of culture fluid harvested from HIV-1-infected PBMC were ultracentrifuged to pellet the virus. The pellet was dissolved in buffer A [50 mM Tris-HCl, pH 7.9/0.25% Nonidet P-40/5 mM dithiothreitol/20% (vol/vol) glycerol] containing 1 mM EDTA, and freeze-thawed four times. After clarification by centrifugation, the enzyme was partially purified from the supernatant by passing the extract through a DEAE-cellulose column (Whatman DE-52; 2.6×15 cm) previously equilibrated with buffer B (50 mM Tris-Cl, pH 7.9, 50 mM KCl, 1 mM EDTA, 1 mM dithiothreitol, 20% glycerol). Elution was performed using a linear gradient 50-500 mM KCl in buffer B. Fractions containing enzyme activity were dialyzed against buffer B and were further purified on a phosphocellulose column (Whatman P-11) using a linear KCl (50-500 mM) gradient in buffer B. The peak fractions were pooled and dialyzed against buffer B. The enzyme was characterized as HIV-1 reverse transcriptase based on its cation, salt, pH, and template requirements according to previous descriptions (Eriksson et al, Antimicrob. Agents Chemother. 31, 600-604, 1977). The standard reaction mixture was used to evaluate the inhibitory effect of the drugs, as previously described (Eriksson et al, Antimicrob. Agents Chemother. 31, 600-604, 1977). Briefly, the reaction mixtures (final volume 100 μl) contained 100 mM Tris-HCl, pH 8.0, 50 mM KCl, 2 mM MgCl2, 5 mM DTT, 400 ug/ml bovine serum albumin, 3 μg/ml (rA)·(dT)12-18 and 1 μM of [^3H]TTP (specific activity 82.3 Ci/mmol). The reactions were started by the addition of 10 μl of partially purified RT, incubated at 37° C. for 60 min., and processed as previously described (Eriksson et al, Antimicrob. Agents Chemother. 31, 600-604, 1977).
Median-effect method. Dose-effect relationships were analyzed by the median-effect equation (Chou et al, Adv. Enz. Regul. 22, 27-55, 1984). The slope (m) and median effective and inhibitory concentration (EC50 and IC50) values were obtained by using a computer program developed by Chou and Chou (Chou et al, Elsevier-Biosoft, Elsevier Science Publishers, Cambridge, U.K., 1985).

Data set [3] has as its system HSV-1. Kind of data set: Plaque reduction assay for herpes simplex viruses in Vero cells. The following applies: Table 2; read-out: EC-50 HSV-1. The data set is classed as cell-based, herpes simplex virus type 1. On the procedure: (§1) Cell culture assays for heroes simplex viruses. Mycoplasma-free Vero cells, obtained from Flow Laboratory (McLean, Va.), were used for the plaque assays. The methodologies for the plaque reduction and cytotoxicity assays have been previously described (Schinazi et al, Antimicrob. Agents Chemother. 22, 499-507, 1982). Median-effect method. Dose-effect relationships were analyzed by the median-effect equation (Chou et al, Adv. Enz. Regul. 22, 27-55, 1984). The slope (m) and median effective and inhibitory concentration (EC50 and IC50) values were obtained by using a computer program developed by Chou and Chou (Chou et al, Elsevier-Biosoft, Elsevier Science Publishers, Cambridge, U.K., 1985).

The subject of data set [4] is HSV-2. Described as above. The data set is classed as cell-based, herpes simplex virus type 2. The note with it: Table 2; read-out: EC-50 HSV-2. On the procedure: as §1
The subject of data set [5] is Vero cells. Description: Cytotoxicity assay in Vero cells. The data set is classed as cell-based. The note with it: Table 2; >100 μM = Nontoxic; read-out: IC50 Toxicity Vero Cells. From the text:
Cell culture assays for heroes simplex viruses. Mycoplasma-free Vero cells, obtained from Flow Laboratory (McLean, Va.), were used for the plaque assays. The methodologies for the plaque reduction and cytotoxicity assays have been previously described (Schinazi et al, Antimicrob. Agents Chemother. 22, 499-507, 1982).

Data set [6] can be described thus: Comparison of toxicity of polyoxometalate compounds in mice (mortality, haematology). The following applies: BID × 6, 60 mkd i.p.; for Mortality: dead/total. The class given is in vivo. From the text:
Comparison of Toxicity of Polyoxometalate Compounds Mice.
In vivo antiviral experiments. […] Treatment was continued daily for 6 or 10 days.

In data set [7] the test system is HIV-1 (strain LAV-1). Kind of data set: microbe, parasite or virus in culture. The class given is cell-based. On the procedure: Cells. Human peripheral blood mononuclear cells (PBMC) from healthy HIV-1 seronegative and hepatitis B virus seronegative donors were isolated by Ficoll-Hypaque discontinuous gradient centrifugation at 1,000×g for 30 minutes, washed twice in phosphate-buffered saline (pH 7.2; PBS), and pelleted at 300×g for 10 minutes. Before infection, the cells were stimulated by phytohemagglutinin (PHA) at a concentration of 6 μg/ml for three days in RPMI 1640 medium supplemented with 15% heat-inactivated fetal calf serum, 1.5 mM L-glutamine, penicillin (100 U/ml), streptomycin (100 μg/ml), and 4mM sodium bicarbonate buffer.
Viruses. HIV-1 (strain LAV-1) was obtained from Dr. P. Feorino (Centers for Disease Control, Atlanta, Ga.). The virus was propagated in human PBMC using RPMI 1640 medium, as described previously (McDougal et al, J. Immun. Meth. 76, 171-183, 1985) without PHA and supplemented with 7% v/v interleukin-2 (Advanced Biotechnologies, Silver Spring, Md.), 7 μg/ml DEAE-dextran (Pharmacia, Uppsala, Sweden), and 370 U/ml anti-human leucocyte (alpha) interferon (ICN, Lisle, Ill.). Virus obtained from cell-free culture supernatant was titrated and stored in aliquots at −80° C. until use.
Inhibition of virus replication in human PBMC. Uninfected PHA-stimulated human PBMC were uniformly distributed among 25 cm^2 flasks to give a 5 ml suspension containing about 2×10^6 cells/ml. Suitable dilutions of virus were added to infect the cultures. The mean reverse transcriptase (RT) activity of the inocula was 50,000 decompositions per min/ml corresponding to about 100 TCID50, as determined by Groopman et al. (Groopman et al, AIDS Res. Human Retro. 3, 71-85, 1987. The drugs at twice their final concentrations in 5 ml of RPMI 1640 medium, supplemented as described above, were added to the cultures. Uninfected and untreated PBMC at equivalent cell densities were grown in parallel as controls. The cultures were maintained in a humidified 5% CO2-95% air incubator at 37° C. for six days after infection, at which point all cultures were sampled for supernatant reverse transcriptase (RT) activity.
RT activity assay. Six ml supernatant from each culture was clarified from cells at 300×g for 10 minutes. Virus particles were pelleted from 5 ml samples at 40,000 rpm for 30 minutes using a Beckman 70.1 Ti rotor and suspended in 200 μl of virus disrupting buffer (50 mM Tris-Cl, pH 7.8, 800 mM NaCl, 20% glycerol, 0.5 mM phenylmethyl sulfonyl fluoride, and 0.5% Triton X-100).
The RT assay was performed in 96-well microtiter plates, as described by Spira et al. (Spira et al, J. Clin. Microbiol. 22, 97-99, 1987). The reaction mixture, which contained 50 mM Tris-Cl pH 7.8, 9 mM MgCl2, 5 mM dithiothreitol (DTT), 4.7 μg/ml (rA)n. (dT)12-18, 140 μM dATP, and 0.22 μM [^3H]TTP, specific activity 78.0 Ci/mmol, equivalent to 17,300 cpm/pmol; NEN Research Products, Boston, Mass., was added to each well. The sample (20 μl) was added to the reaction mixture which was then incubated at 37° C. for 2 hours. The reaction was terminated by the addition of 100 μl 10% trichloroacetic acid (TCA) containing 0.45 mM sodium pyrophosphate. The acid-insoluble nucleic acids which precipitated were collected on glass filters using a Skatron semi-automatic harvester. The filters were washed with 5% TCA and 70% ethanol, dried, and placed in scintillation vials. Four ml of scintillation fluid (Econofluor, NEN Research Products, Boston, Mass.) were added and the amount of radioactivity in each sample was determined using a Packard Tri-Carb liquid scintillation analyzer (model 2,000CA). The results were expressed in dpm/ml of original clarified supernatant.
Median-effect method. Dose-effect relationships were analyzed by the median-effect equation (Chou et al, Adv. Enz. Regul. 22, 27-55, 1984).

Where [8] appears, read: Table 1, read-out: EC50 Anti-HIV-1 Activity in Human PBM Cells.
Where [9] appears, read: Table 1, read-out: IC50 Toxicity in Human PBM Cells.

Values joined by “and” are separate entries in the source; they are usually repeats but may differ in a detail not shown here. Identical values can stand only once. Like-named read-outs stand apart in the source and are kept apart here. Where only a bound is given, the exact number is not on record here.

In general, IC50 refers to the concentration at which inhibition is half-maximal.

For “(ArgH^+)n(H^+)5-nBT, where n=1-5 [(ARGH^+)nH^+(5−n)BT]”, the IC50 in data set [1] (Table 2, >100 μM = Nontoxic, read-out: IC50 Toxicity PBM Cells) is 328 µM; in data set [5] it was more than 100 µM. Moreover, the EC50 in data set [2] amounted to 25.4 µM; in data set [3], 1.35 µM; in data set [4] it was 3.16 µM. The “MDD ± St. Dev. (Mean day of death)” value in data set [6] turned out to be 8.8 ± 0.45. In addition, in data set [6], the Mortality is given as 5/5 (100).
On to (NH4)5[BW12O40] [(NH4)5BT], for which the EC50 in data set [7] (Table 2, several values per cell, some in brackets, read-out: EC-50 HIV-1 (LAV-1)) is 6.69 µM and 11.6 µM; in data set [2], 68.1 µM; in data set [3], more than 10 µM; in data set [4], more than 10 µM. Besides, the half-maximal inhibitory concentration (IC50) in data set [5] was more than 100 µM. Further, the “MDD ± St. Dev. (Mean day of death)” value in data set [6] was determined as 4.6 ± 0.89. In addition, the Mortality in data set [6] is 5/5 (100).
As for (NH4)14[NaP5W30O110] [Formula 17], the EC50 in data set [7] (setting [8]) turned out to be 0.32 µM. Further, the IC50 in data set [1] (setting [9]) was found to be 7.7 µM.
In the case of (n-Bu4N)2Mo6O19 [Formula 16], in data set [7] (setting [8]), the EC50 was more than 100 µM. Moreover, the IC50 in data set [1] (setting [9]) was more than 100 µM.
In the case of (n-Bu4N)2W6O19 [Formula 15], the IC50 in data set [1] (setting [9]) is more than 100 µM.
For the substance H6ZnW12O40 [Formula 5], the EC50 in data set [7] (setting [8]) was 0.9 µM. Also, the concentration for half-maximal inhibition (IC50) in data set [1] (setting [9]) turned out to be 12 µM.
As for K4W4O10(O2)6 [Formula 21], the EC50 in data set [7] (setting [8]) was more than 50 µM. Further, in data set [1] (setting [9]), the IC50 is more than 100 µM.
In the same order, the values of K8SiW11O39 [Formula 9] are 0.15 µM and more than 100 µM.
K10Co4(H2O)2(PW9O34)2 [Formula 12]: the EC50 in data set [7] (setting [8]) was determined as 0.8 µM. Further, the IC50 in data set [1] (setting [9]) was determined as 44 µM.
In the case of K10Cu4(H2O)2(PW9O34)2 [Formula 11], the EC50 in data set [7] (setting [8]) was 4.4 µM. For the same substance, the half-maximal inhibitory concentration (IC50) in data set [1] (setting [9]) is more than 100 µM.
Regarding Na6H2W12O40 [Formula 6], the EC50 in data set [7] (setting [8]) turned out to be 0.34 µM. Also, the IC50 in data set [1] (setting [9]) is more than 100 µM.
In the same order, the values of Na7PW11O39 [Formula 8] are 10.8 µM and more than 100 µM.
For the substance Na9HSiW9O34 [Formula 10], in data set [7] (setting [8]), the EC50 was 2.4 µM. For the same substance, the half-maximal inhibitory concentration (IC50) in data set [1] (setting [9]) was more than 100 µM.
In the case of [(DMA)2H]3PMo12O40 [Formula 7], the EC50 in data set [7] (setting [8]) was more than 100 µM. The concentration for half-maximal inhibition (IC50) in data set [1] (setting [9]) is more than 100 µM.
Take α-(n-Bu4N)4Mo8O26 [Formula 20]: the EC50 in data set [7] (setting [8]) came to 55.3 µM. Besides, the half-inhibitory concentration (IC50) in data set [1] (setting [9]) was more than 100 µM.
